Broadly, the Ki is a dissociation constant, usually derived from enzyme kinetics or from competition with a known ligand.

The values that follow come from article PMC8205077, “Phenyl-substituted aminomethylene-bisphosphonates inhibit human P5C reductase and show antiproliferative activity against proline-hyperproducing tumour cells” (Journal of Enzyme Inhibition and Medicinal Chemistry, 2021).

One series deals with human P5C reductase. The note with it: cited from earlier work.
Series [1] has as its target T1, human P5C reductase 1 (PYCR1) (Homo sapiens, UniProt P32322).
T1 construct: His-tag; made in house; host or cells: E. coli BL21(DE3) pLysS
T1 sequence (P32322 1-319): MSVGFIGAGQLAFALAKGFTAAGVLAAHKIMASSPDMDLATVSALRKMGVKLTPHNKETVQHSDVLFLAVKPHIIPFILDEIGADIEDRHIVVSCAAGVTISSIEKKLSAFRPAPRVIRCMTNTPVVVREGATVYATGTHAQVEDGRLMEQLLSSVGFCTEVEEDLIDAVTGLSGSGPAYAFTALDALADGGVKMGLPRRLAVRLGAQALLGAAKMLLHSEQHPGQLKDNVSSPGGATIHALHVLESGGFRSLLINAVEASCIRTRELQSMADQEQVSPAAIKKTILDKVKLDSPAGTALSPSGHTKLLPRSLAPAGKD
Description: P5C reductase assay (P5C-dependent oxidation of NAD(P)H). The class given is biochemical. The note with it: for effect on the activity of human P5C reductase: at concentrations as low as 1 μM. The procedure:
The gene coding for P5C reductase 1 (PYCR1, gene ID 5831), cloned into the expression vector pET28a^+[34], was kindly provided by prof. Zihe Rao (Tsinghua University, China). For heterologous expression, E. coli BL21(DE3) pLysS cells (Invitrogen) were made competent by the calcium chloride method, transformed with the recombinant vector and selected on kanamycin-containing LB plates. About 6 h after inducing gene expression in liquid LB medium at 24 °C by the addition of 1 mM isopropyl-D-thiogalactopyranoside, cells were harvested by centrifugation and stored at −20 °C. Aliquots (about 1 g cell material) were lysed in an ice-cold mortar with 2 g g^−1 alumina and resuspended in 20 mL g^−1 extraction buffer (50 mM Na phosphate buffer, pH 7.5, containing 200 mM NaCl and 20 mM imidazole). The His-tagged protein was purified from clarified extracts by affinity chromatography onto a His-Trap^TM FF column (1 mL, GE Healthcare 17–5319-01). Stepwise elution was achieved by increasing concentrations of imidazole in extraction buffer. Discontinuous SDS–polyacrylamide gel electrophoresis was performed at 8 mA with a 5% stacking and a 12% separating gel, using a Minigel system (BioRad). Samples were mixed with the same volume of 125 mM Tris–HCl buffer (pH 6.8) containing 4% (w/v) SDS, 20% (v/v) glycerol and 10% (v/v) β-mercaptoethanol, and denatured 5 min at 100 °C. Proteins were visualised by soaking gels in Quick Coomassie Stain (CliniSciences) overnight.
Enzyme activity was measured at 30 °C as the P5C-dependent oxidation of NAD(P)H. Assays were performed in 96-microwell plates in a final volume of 0.2 mL. The assay mixture contained 4 mM DL-P5C and 0.5 mM of either NADH or NADPH in 50 mM Tris-HCl buffer, pH 7.5. Parallel blanks were performed in which P5C had been omitted. The decrease of absorbance was measured for 5 min at 0.5-min intervals using a Ledetect plate reader (Labexim, Lengau, Austria) equipped with a LED plugin at 340 nm. Residual NAD(P)H content was estimated on the basis of calibration curves obtained under the same conditions. Activity was calculated by linear regression of data using Prism 6 for Windows, version 6.03 (GraphPad Software, San Diego, CA); one unit of activity was defined as the amount of enzyme that catalyses the P5C-dependent oxidation of 1 nmol NAD(P)H s^−1 (nkat). Proteins were measured by the Coomassie Brilliant Blue method, using bovine serum albumin as the standard. To evaluate substrate affinity, invariable substrates were fixed at the same levels as in the standard assay. For variable substrates, L-P5C ranged from 400 to 2000 μM, while the concentration of NADH and NADPH ranged from 125 to 500 μM. To evaluate the inhibition brought about by pargylines and aminomethylene-bisphosphonates, freshly prepared 10 mM stock solution in water and 100 mM Tris-HCl buffer pH 7.5, respectively, were diluted with water and added to the reaction mixture before enzyme addition. Parallel control samples were carried out in the absence of any inhibitor. Activity was calculated as described above. Mean activity value in controls was set as 100%, and activity in treated samples was expressed as percent of such value. Percent values were plotted against the logarithm of inhibitor concentration, and data were interpolated using the equation Y = 100/(1 + 10^∧((LogIC50-X)*HillSlope)). Assays were performed in triplicate (technical replications). Each experiment was repeated at least twice with different enzyme preparations (biological replicates). KM and Vmax values, as well as the concentrations causing 50% inhibition (IC50), KI values and their confidence intervals were estimated by non-linear regression analysis using Prism 6.

In a further series the test system is breast cancer cell. The settings on record: at 10 μM; cited from earlier work.
Series [2] relates to K562 cells. The series can be described thus: Cell viability assay (Trypan Blue exclusion), K562 cells. The note with it: modified RPMI medium not containing proline, 96 h after the inoculum. The class given is cell-based, human. The procedure:
Cell viability was assessed by the Trypan Blue exclusion test[38]. Stained cells were counted in a Bürker chamber. Viable and nonviable cells were recorded separately, and the results of three independent counts were pooled. Data were expressed as percent of alive cells.

Series [3] relates to K562 cells. Description: Measurement of intracellular free proline and P5C levels, K562 cells. The class given is cell-based, human. The procedure: For proline and P5C quantification, treatments were carried out in T-25 flasks containing 10 mL medium. Cells were harvested by centrifugation at 1000 g for 5 min at RT. Each pellet was resuspended in 1.4 mL of sterile PBS and spun again to remove the medium. Washed pellets were transferred on ice, resuspended in a minimal volume of a 3% (w/v) solution of 5-sulfosalicylic acid and subjected to various freeze-thaw cycles to induce rupture of the phospholipid membrane. Cell debris were sedimented by centrifugation at 12,000 g for 5 min at RT, and the supernatants were analysed by the acid ninhydrin method of Williams and Frank, as described.

Series [4] deals with human epithelial breast cancer MDA-MB-231 cells. Description: Antiproliferative assay, MDA-MB-231 cells. The class given is cell-based. As for the experimental part: (§1) Human myelogenous erythroleukemic K562 cells[36] were cultured in a humidified atmosphere of 5% CO2/air either in complete RPMI 1640 medium (Lonza, Verviers, Belgium) or in a modified medium without L-proline (United States Biological, Massachusetts, USA), both supplemented with 10% foetal bovine serum (FBS; Biowest, Nuaillé, France), 100 U mL^−1 penicillin and 100 μg mL^−1 streptomycin. Human epithelial breast cancer MDA-MB-231 cells[37] were cultured under the same conditions in DMEM medium (Lonza, Verviers, Belgium) supplemented with 10% FBS, 100 U mL^−1 penicillin, 100 μg mL^−1 streptomycin and 2 mM L-glutamine.
K562 cells in the late exponential phase of growth were seeded in 1 mL medium without FBS in 24-well plates to an initial density of about 20,000 cells mL^−1. Treatments with Br2PAMBPA in the range 1–200 µM were carried out 5 h after seeding. Cell growth was monitored at increasing time after the treatment by determining cell density on 50-μL aliquots with a Z1 Coulter Counter (Coulter Electronics), considering a dimensional range between 8 and 20 μm. MDA-MB-231 cells in the late exponential phase of growth (90% confluence) were washed with sterile PBS, incubated with sterile trypsin-EDTA solution (Sigma-Aldrich, Saint Louis, USA) for 2 min, resuspended in fresh DMEM medium and centrifuged at 1000 g at room temperature for 5 min. Pellets were resuspended in sterile PBS and spun again to remove any residue of trypsin. […] Treatments with Br2PAMBPA in the range 1–200 µM were carried out 5 h after seeding, and 2% FBS was added to each well 24 h thereafter. Cell growth was monitored at increasing time after the treatment by destructive harvest. For both cell lines each treatment was carried out at least in triplication, and each experiment was performed at least twice.

Series [5] has as its system human myelogenous erythroleukemic K562 cells. The series can be described thus: Antiproliferative assay, K562 cells. The class given is cell-based. The note with it: for IC50: Homo sapiens, K562. The procedure:
as §1
K562 cells in the late exponential phase of growth were seeded in 1 mL medium without FBS in 24-well plates to an initial density of about 20,000 cells mL^−1. Treatments with Br2PAMBPA in the range 1–200 µM were carried out 5 h after seeding. Cell growth was monitored at increasing time after the treatment by determining cell density on 50-μL aliquots with a Z1 Coulter Counter (Coulter Electronics), considering a dimensional range between 8 and 20 μm. MDA-MB-231 cells in the late exponential phase of growth (90% confluence) were washed with sterile PBS, incubated with sterile trypsin-EDTA solution (Sigma-Aldrich, Saint Louis, USA) for 2 min, resuspended in fresh DMEM medium and centrifuged at 1000 g at room temperature for 5 min. Pellets were resuspended in sterile PBS and spun again to remove any residue of trypsin. Cells were finally resuspended in DMEM medium without FBS, and seeded in 24-well plates in a final volume of 1 mL to an initial density of about 20,000 cells mL^−1. Treatments with Br2PAMBPA in the range 1–200 µM were carried out 5 h after seeding, and 2% FBS was added to each well 24 h thereafter. Cell growth was monitored at increasing time after the treatment by destructive harvest. For both cell lines each treatment was carried out at least in triplication, and each experiment was performed at least twice.

Another series concerns the target glutamine synthetase. The settings on record: human enzyme; cited from earlier work.
Setting [6] is: IC50, NADH as the electron donor.
The mark [7] stands for this setting: IC50, NADPH as the electron donor.
Setting [8] is: IC50 values, abstract, cofactor not specified.
Where [9] appears, read: treated serum-free, 2% FBS added 24 h thereafter.

Structures can show the parent of a compound that is named as a salt. Where two headings read alike, the source gives them in different places. A value given as a limit tells only on which side of the number the result lay.

For `C#CCN(C)Cc1ccccc1` [Pargyline, N-methyl-N-(2-propynyl)benzylamine hydrochloride, reference compound], the IC50 on human P5C reductase (listed as pargylin) is 200 µM; at human P5C reductase (listed as pargyline) it was 198 µM; in series [1] (setting [6]) it was more than 10000 µM; in series [1] (setting [7]), 81 µM.

As to `C#CCN(C)Cc1ccc(Br)cc1` [4-bromopargyline, reference compound], the IC50 on human P5C reductase was 9 µM; in series [1] (setting [6]) it was 234 ± 28 µM; in series [1] (setting [7]), 9 µM; in series [1] (NADPH as the electron donor, read-out: IC50) it was 8.7 ± 0.8 µM. For the same compound, the “reduction of breast cancer cell proliferation” value in the series on breast cancer cell is 30–40%.

`O=P(O)(O)C(Nc1cc(Br)cc(Br)c1)P(=O)(O)O` [Br2PAMBPA, 3,5-dibromophenylaminomethylene-bisphosphonic acid]: the “concentrations at which cell viability was significantly reduced” value in the series with K562 cells [2] was “exceeding 50 µM”. Also, the “levels of P5C” value with K562 cells [3] (all cases, detection limit printed as > 1 nmol [10^6 cells]^−1) is “no detectable”. In addition, the free proline concentration with K562 cells [3] (control and treated K562 cells, with or without exogenous proline) is listed as 4–5 nmol (10^6 cells)^−1. Also, in the series with K562 cells [3] (modified RPMI medium not containing proline, 96 h after the inoculum), the “intracellular levels of free proline vs controls” value is given as “not significantly different than in controls”. Further, the “reduction of free proline content with respect to viable cells” value in the series with K562 cells [3] (unmodified RPMI medium with 20 mg L^−1 Pro, at 50 µM) was “less than 50%”. The “free proline content with respect to viable cells” value with K562 cells [3] (unmodified RPMI medium with 20 mg L^−1 Pro, up to 50 µM) was “no reduction was evident”. The “type of inhibition with NADH as the variable substrate” value in series [1] is on record as “mixed-type”. Further, the IC50 in series [1] (setting [6]) is 0.48 ± 0.03 µM; in series [1] (setting [7]), 0.39 ± 0.03 µM; in series [1] (setting [8]), less than 1 µM; in series [5] (modified RPMI medium not containing proline, read-out: concentration giving 50%-inhibition of growth) it was approximately 20 µM; in series [5] (unmodified RPMI medium containing 20 mg L^−1 (174 μM) Pro, read-out: concentration giving 50% inhibition of growth), approximately 7 µM. Also, the Ki in series [1] (NADH as variable substrate (Fig. 4D)) was 0.66 ± 0.21 µM; in series [1] (NADPH as variable substrate (Fig. 4C)), 0.48 ± 0.08 µM; in series [1] (P5C as variable substrate, NADH as electron donor (Fig. 4B)), 0.12 ± 0.01 µM; in series [1] (P5C as variable substrate, NADPH as electron donor (Fig. 4A)), 0.32 ± 0.02 µM. Further, in series [1] (abstract), the “mechanism of inhibition against both P5C and NADPH” value was “competitive type”. The “effect on the activity of human P5C reductase” value in series [1] was “almost completely suppressed”. Further, the “type of inhibition against P5C” value in series [1] (with NADPH or NADH as the electron donor) is given as “competitive type”. Moreover, the “effect on cell proliferation in standard medium” value in series [4] (DMEM with FBS, concentrations exceeding 50 μM, preliminary, data not shown) is given as “only mild effects”. In addition, the “concentrations progressively impairing growth” value in series [4] (abstract) and in series [5] (abstract) was 10^−6 to 10^−4 M throughout. Besides, the “concentration from which cell growth rate and maximal cell density were progressively reduced” value in series [4] (setting [9]) was not below 5 µM. In addition, the “concentration from which cell proliferation was completely abolished” value in series [4] (setting [9]) is not below 50 µM. In series [5] (modified RPMI medium not containing proline), the “concentration range in which growth was inhibited” value lay in the range of 2 to 200 µM.

Regarding `O=P(O)(O)C(Nc1cc(Cl)cc(Cl)c1)P(=O)(O)O` [3,5-Cl2PAMBPA], the IC50 at glutamine synthetase is 780 ± 30 µM; in series [1] (setting [6]) it was 0.78 ± 0.04 µM; in series [1] (setting [7]) it was 0.74 ± 0.06 µM; in series [1] (setting [8]) it was less than 1 µM. For the same compound, in series [1] (abstract), the “mechanism of inhibition against both P5C and NADPH” value is “competitive type”. The “effect on the activity of human P5C reductase” value in series [1] is given as “almost completely suppressed”.
